# Assays:
# HCT-116 cells = assay: Cellular superoxide anion signal, DHE probe, HPLC-fluorimetry; type: cell-based; settings: HCT-116, 50 μM for 3 hours, DHE 10 μM 20 minutes, normoxia
# Experimental: The effect of compound (1) on superoxide anion was studied following the treatment of HCT-116 cells with 50 μM compound (1) for 3 hours and followed by incubation with the probe dihydroethidium (DHE) (10 μM) for 20 minutes. After removing the culture medium and washing with ice-cold DPBS, the cells were collected in 1 ml of cold DPBS. After centrifugation at 1000 g for 5 minutes, the pellet was taken up in 150 μl of PBS with Triton X100 (0.1%), shaken and centrifuged at 1000 g for 5 minutes. The supernatant was mixed with a 0.2 M solution of HClO4 in methanol, shaken and placed on ice for 2 hours. After centrifugation at 20000 g for 30 minutes, the supernatant is analyzed by HPLC coupled with fluorescence (λex=510 nm, λcm=595 nm). In the untreated cells (continuous line), the first peak at tR=5.16 minutes corresponds to the oxidized form “E+”, product of oxidation by peroxidases, and the second peak at tR =5.71 minutes to the oxidized form 2-OH E+, specific to the interaction with superoxide anion. In the treated cells, the first peak at tR=5.29 minutes corresponding to the oxidized form “E+” is increased, whereas the second peak at tR=5.71 minutes, corresponding to the oxidized form 2OH E+, specific to the interaction with superoxide anion, was suppressed. […] (FIG. 10).
# [1] = test system: caspases 3 and 7 in U87 cells; assay: Caspase 3 and 7 activity (ApoONE test), U87; type: cell-based, human; settings: U87, normoxia, 24 hours, 1 μM to 50 μM
# Experimental: In order to specify whether compound (1) leads to apoptotic cell death, the activity of caspases 3 and 7, marker enzymes of apoptosis, was measured using the ApoONE test (Promega) in HCT-116, U87 and HL60 cells treated in normoxia for 24 hours with compound (1) at concentrations varying from 1 μM to 50 μM.
smiles,measurement,setting,value
OCCCn1cc(-c2ccccc2)c(-c2ccc(O)c(O)c2)c1 [compound (1)],2-OH E+ signal (DHE oxidized by superoxide anion),HCT-116 cells,inhibition of the 2OH E+ signal
same,E+ signal (DHE oxidized by peroxidases or catalase),HCT-116 cells,increase in the E+ signal
same,activity of caspases 3 and 7,[1],significant activation of both caspases

# — patent US10233151B2, “Use of a novel 3-aryl-4-catechol-pyrrole-N-propanol compound and the derivatives thereof to treat cancer and diseases related to excessive angiogenesis” (Centre National de la Recherche Scientifique (CNRS), priority 2014, dated 2019)
